Measurements: US12144864B2, “Tubulysins and protein-tubulysin conjugates” (Regeneron Pharmaceuticals, Inc., priority 2018, dated 2024)
Read-outs that look alike come from different tables or passages of the source.

Assays:
[1] = test system: HCT15 cells; assay: cells; assay type: cell-based, human; settings: HCT15 cells; for HCT-15 + verapamil % Kill / HCT-15 % Kill: maximum % cell killing
Experimental: (§1) To test the ability of the disclosed tubulysin payloads to kill human cell lines, an in vitro cytotoxicity assay was performed. In vitro cytotoxicity of the disclosed payloads, as well as reference compounds, were evaluated using the CellTiter-Glo Assay Kit (Promega, Cat #G7573), in which the quantity of ATP present is used to determine the number of viable cells in culture. For the assay, C4-2, HEK293, or T47D cells were seeded at 4000 cells/well on Nunclon white 96-well plates in complete growth medium (DME high glucose:Ham's F12 at 4:1, 10% FBS, 100 units/ml Penicillin, 100 ug/ml streptomycin, 53 ug/ml glutatmine, 10 ug/ml insulin, 220 ng/ml biotin, 12.5 pg/ml T3, 12.5 ug/ml Adenine, 4 ug/ml transferrin for C42 cells; DME high glucose, 10% FBS, 100 units/ml Penicillin, 100 ug/ml streptomycin, 53 ug/ml glutatmine for HEK293; RPMI, 10% FBS, 100 units/ml Penicillin, 100 ug/ml streptomycin, 53 ug/ml glutatmine, 10 ug/ml insulin, 10 mM HEPEs, 200 nM Sodium Pyruvate for T47D cells) and grown overnight at 37° C. in 5% CO2. For cell viability curves, 1:3 serially diluted payloads were added to the cells at final concentrations ranging from 100 nM to […], including a no treatment control group, and were then incubated for 5 days. After the 5-day incubation, cells were incubated at room temperature with 100 μL of CellTiter-Glo reagents for 10 minutes. Relative luminescence units (RLU) were determined on a Victor plate reader (PerkinElmer). The IC50 values were determined from a four-parameter logistic equation over a 10-point response curve (GraphPad Prism). All IC50 values are expressed in molar (M) concentration. The percent cell killing (% kill) at the maximum concentration tested was estimated from the following formula (100−% viable cells). Averages±standard deviation (SD) are included where replicate experiments were performed.
In vitro cytotoxicity of the disclosed payloads as well as reference compounds were evaluated similarly as described above except using 1000 HCT15 cells, a colorectal carcinoma cell line, in growth medium (RPMI, 10% FBS, 100 units/ml Penicillin, 100 ug/ml streptomycin, 53 ug/ml glutatmine) with or without 5 ug/mL of Verapamil.

[2] = test system: C4-2 cells; assay: Cell-based killing assay of payloads (CellTiter-Glo), C4-2 cells; design: species or system human; settings: 5-day incubation; for IC50: Homo sapiens, C4-2, 120 h, average ± SD where replicates; for C4-2 % Kill: at maximum concentration tested (100 − % viable cells)
Experimental: as §1

[3] = test system: HL60/MX2 cells; assay: Cytotoxicity in panel of MDR cell lines, HL60/MX2 (72 h and 144 h); assay type: cell-based, human; settings: for IC50: Homo sapiens
Experimental: as §1
(§2) To further test the ability of the disclosed tubulysin payloads, a cytotoxicity assay was performed using a panel of multidrug resistant (MDR) cell lines. In vitro cytotoxicity of the disclosed payloads as well as reference compounds were similarly evaluated as described above except using HCT-15 cells, a colorectal carcinoma cell line; H69AR, a doxorubicin resistant MDR derivative of the small cell lung cancer carcinoma cell line NCI-H69; MES-SA/MX2, a mitoxantrone resistant MDR derivative of the uterine sarcoma cell line MES-SA; and HL60/MX2, a mitoxantrone resistant MDR derivative of the acute promyelocytic leukemia cell line HL60. In these assays, cytotoxicity was evaluated in normal growth media (RPMI, 10% FBS, 100 units/ml Penicillin, 100 ug/ml streptomycin, and 53 ug/ml glutatmine for HCT-15 and HL60/MX2; RPMI, 20% FBS, 100 units/ml Penicillin, 100 ug/ml streptomycin, and 53 ug/ml glutatmine for H69-AR; Waymouths's:McCoy's (1:1), 10% FBS, 100 units/ml Penicillin, 100 ug/ml streptomycin, and 53 ug/ml glutatmine for MES-SA/MX2) with 1000 cells per well following 72 h and 144 h incubation with payloads.

[4] = test system: MES-SA/MX2 cells; assay: Cytotoxicity in panel of MDR cell lines, MES-SA/MX2 (72 h and 144 h); assay type: cell-based, human; settings: for IC50: Homo sapiens
Experimental: as §1, §2

[5] = test system: HCT-15 cells; assay: Cytotoxicity in panel of MDR cell lines, HCT-15 (72 h and 144 h); assay type: cell-based, human; settings: for IC50: Homo sapiens
Experimental: as §1, §2

[6] = test system: H69AR cells; assay: Cytotoxicity in panel of MDR cell lines, H69AR (72 h and 144 h); assay type: cell-based, human; settings: for IC50: Homo sapiens
Experimental: as §1, §2

[7] = with 5 ug/mL Verapamil, read-out: HCT-15 + verapamil IC50
[8] = Homo sapiens, HCT-15, without Verapamil, read-out: HCT-15 IC50
[9] = 72 h incubation, read-out: HL60/MX2 IC50 72 h
[10] = 144 h incubation, read-out: HL60/MX2 IC50 144 h
[11] = 72 h incubation, read-out: MES-SA/MX2 IC50 72 h
[12] = 144 h incubation, read-out: MES-SA/MX2 IC50 144 h
[13] = 72 h incubation, read-out: HCT-15 IC50 72 h
[14] = 144 h incubation, read-out: HCT-15 IC50 144 h
[15] = 72 h incubation, read-out: H69AR IC50 72 h
[16] = 144 h incubation, read-out: H69AR IC50 144 h

C#CCCCCN(C(=O)[C@@H](NC(=O)[C@H]1CCCCN1C)[C@@H](C)CC)[C@H](C[C@@H](OC(C)=O)c1nc(C(=O)N[C@@H](Cc2ccccc2)CC(C)(C)C(=O)O)cs1)C(C)C [IVb, (4S)-4-({2-[(1R,3R)-1-(Acetyloxy)-3-[(2S,3S)—N-(hex-5-yn-1-yl)-3-methyl-2-{[(2R)-1-methylpiperidin-2-yl]formamido}pentanamido]-4-methylpentyl]-1,3-thiazol-4-yl}formamido)-2,2-dimethyl-5-phenylpentanoic acid]
HCT-15 + verapamil % Kill ([1]; with 5 ug/mL Verapamil): 98.1%
IC50 [1, 7]: 0.103 nM
HCT-15 % Kill ([1]; without Verapamil): 98%
IC50 [1, 8]: 0.151 nM

CC[C@H](C)[C@H](NC(=O)[C@H]1CCCCN1C)C(=O)N(CCCCc1cn(CC(=O)O)nn1)[C@H](C[C@@H](OC(C)=O)c1nc(C(=O)N[C@@H](Cc2ccc(N)cc2)CC(C)(C)C(=O)O)cs1)C(C)C [IVm, (S)-4-(2-((1R,3R)-1-acetoxy-3-((2S,3S)—N-(4-(1-(carboxymethyl)-1H-1,2,3-triazol-4-yl)butyl)-3-methyl-2-((R)-1-methylpiperidine-2-carboxamido)pentanamido)-4-methylpentyl)thiazole-4-carboxamido)-5-(4-aminophenyl)-2,2-dimethylpentanoic acid]
IC50 [2]: > 100 nM
C4-2 % Kill [2]: 8.9%

CCCCCCN(C(=O)[C@@H](NC(=O)[C@H]1CCCCN1C)[C@@H](C)CC)[C@H](C[C@@H](OC(C)=O)c1nc(C(=O)N[C@@H](Cc2ccc(N)cc2)CC(C)(C)C(=O)O)cs1)C(C)C [IVq, (S)-4-(2-((1R,3R)-1-Acetoxy-3-((2S,3S)—N-hexyl-3-methyl-2-((R)-1-methylpiperidine-2-carboxamido)pentanamido)-4-methylpentyl)thiazole-4-carboxamido)-5-(4-aminophenyl)-2,2-dimethylpentanoic acid]
HCT-15 + verapamil % Kill ([1]; with 5 ug/mL Verapamil): 98.6 ± 0.7%
IC50 [1, 7]: 0.0225 nM
HCT-15 % Kill ([1]; without Verapamil): 98.4 ± 0.8%
IC50 [1, 8]: 0.0423 nM
HL60/MX2 % Kill 72 h ([3]; 72 h incubation): 98.6%
HL60/MX2 % Kill 144 h ([3]; 144 h incubation): 100%
IC50 [3, 9]: < 0.015 nM
IC50 [3, 10]: < 0.015 nM
MES-SA/MX2 % Kill 72 h ([4]; 72 h incubation): 99.4%
MES-SA/MX2 % Kill 144 h ([4]; 144 h incubation): 100%
IC50 [4, 11]: 0.0589 nM
IC50 [4, 12]: 0.105 nM
HCT-15 % Kill 72 h ([5]; 72 h incubation): 98%
HCT-15 % Kill 144 h ([5]; 144 h incubation): 99.8%
IC50 [5, 13]: < 0.015 nM
IC50 [5, 14]: 0.0277 nM
H69AR % Kill 72 h ([6]; 72 h incubation): 96.9%
H69AR % Kill 144 h ([6]; 144 h incubation): 99.5%
IC50 [6, 15]: 0.0642 nM
IC50 [6, 16]: 0.128 nM

[2H]c1cc(C[C@@H](CC(C)(C)C(=O)O)NC(=O)c2csc([C@@H](C[C@H](C(C)C)N(CCCCC#C)C(=O)[C@@H](NC(=O)[C@H]3CCCCN3C)[C@@H](C)CC)OC(C)=O)n2)cc([2H])c1N [IVr, (S)-4-(2-((1R,3R)-1-Acetoxy-3-((2S,3S)—N-(hex-5-yn-1-yl)-3-methyl-2-((R)-1-methylpiperidine-2-carboxamido)pentanamido)-4-methylpentyl)thiazole-4-carboxamido)-5-(4-aminophenyl-3,5-d2)-2,2-dimethylpentanoic acid]
HCT-15 + verapamil % Kill ([1]; with 5 ug/mL Verapamil): 99%
IC50 [1, 7]: 0.0624 nM
HCT-15 % Kill ([1]; without Verapamil): 99.1%
IC50 [1, 8]: 0.0893 nM
HL60/MX2 % Kill 72 h ([3]; 72 h incubation): 98.7%
HL60/MX2 % Kill 144 h ([3]; 144 h incubation): 100%
IC50 [3, 9]: < 0.015 nM
IC50 [3, 10]: < 0.015 nM
MES-SA/MX2 % Kill 72 h ([4]; 72 h incubation): 99.1%
MES-SA/MX2 % Kill 144 h ([4]; 144 h incubation): 100%
IC50 [4, 11]: 0.151 nM
IC50 [4, 12]: 0.176 nM
HCT-15 % Kill 72 h ([5]; 72 h incubation): 98%
HCT-15 % Kill 144 h ([5]; 144 h incubation): 99.7%
IC50 [5, 13]: 0.0401 nM
IC50 [5, 14]: 0.0621 nM
H69AR % Kill 72 h ([6]; 72 h incubation): 96.7%
H69AR % Kill 144 h ([6]; 144 h incubation): 99%
IC50 [6, 15]: 0.137 nM
IC50 [6, 16]: 0.211 nM

CCCCCCN(C(=O)[C@@H](NC(=O)[C@H]1CCCCN1C)[C@@H](C)CC)[C@H](C[C@@H](OC(C)=O)c1nc(C(=O)NC(Cc2ccc(N)c(O)c2)CC(C)(C)C(=O)O)cs1)C(C)C (stereo partly drawn) [IVx, 4-(2-((1R,3R)-1-Acetoxy-3-((2S,3S)—N-hexyl-3-methyl-2-((R)-1-methylpiperidine-2-carboxamido)pentanamido)-4-methylpentyl)thiazole-4-carboxamido)-5-(4-amino-3-hydroxyphenyl)-2,2-dimethylpentanoic acid]
HL60/MX2 % Kill 72 h ([3]; 72 h incubation): 96.9%
HL60/MX2 % Kill 144 h ([3]; 144 h incubation): 100%
IC50 [3, 9]: 0.955 nM
IC50 [3, 10]: 0.77 nM
MES-SA/MX2 % Kill 72 h ([4]; 72 h incubation): 62.1%
MES-SA/MX2 % Kill 144 h ([4]; 144 h incubation): 33.6%
IC50 [4, 11]: > 100 nM
IC50 [4, 12]: > 100 nM
HCT-15 % Kill 72 h ([5]; 72 h incubation): 84.4%
HCT-15 % Kill 144 h ([5]; 144 h incubation): 91%
IC50 [5, 13]: 34.5 nM
IC50 [5, 14]: 84.8 nM
H69AR % Kill 72 h ([6]; 72 h incubation): 48.7%
H69AR % Kill 144 h ([6]; 144 h incubation): 38%
IC50 [6, 15]: > 100 nM
IC50 [6, 16]: > 100 nM

CCCCCCN(C(=O)[C@@H](NC(=O)[C@H]1CCCCN1C)[C@@H](C)CC)[C@H](C[C@@H](OC(C)=O)c1nc(C(=O)N[C@@H](Cc2ccc(N)cc2)CC(C)(C)C(=O)NN)cs1)C(C)C [IVy, (1R,3R)-1-(4-((S)-1-(4-Aminophenyl)-5-hydrazinyl-4,4-dimethyl-5-oxopentan-2-ylcarbamoyl)thiazol-2-yl)-3-((2S,3S)—N-hexyl-3-methyl-2-((R)-1-methylpiperidine-2-carboxamido)pentanamido)-4-methylpentyl acetate]
IC50 [2]: 1.82 nM
C4-2 % Kill [2]: 94.4%

CCCCCCN(C(=O)[C@@H](NC(=O)[C@H]1CCCCN1C)[C@@H](C)CC)[C@H](C[C@@H](OC(C)=O)c1nc(C(=O)N[C@@H](Cc2ccc(F)cc2)CC(C)(C)C(=O)O)cs1)C(C)C [VIII, (4S)-4-({2-[(1R,3R)-1-(Acetyloxy)-3-[(2S,3S)—N-hexyl-3-methyl-2-{[(2R)-1-methylpiperidin-2-yl]formamido}pentanamido]-4-methylpentyl]-1,3-thiazol-4-yl}formamido)-5-(4-fluorophenyl)-2,2-dimethylpentanoic acid]
IC50 ([1]; with 5 ug/mL Verapamil, read-out: HCT-15 + verapamil IC50 (value in brackets)): 0.106 nM
IC50 ([1]; Homo sapiens, HCT-15, without Verapamil, read-out: HCT-15 IC50 (value in brackets)): 0.295 nM

C#CCCCON(C(=O)[C@@H](NC(=O)[C@H]1CCCCN1C)[C@@H](C)CC)[C@H](C[C@@H](OC(=O)NCC)c1nc(C(=O)N[C@@H](Cc2ccc(NC(C)=O)cc2)CC(C)(C)C(=O)O)cs1)C(C)C [VIg, (4S)-5-(4-Acetamidophenyl)-4-({2-[(1R,3R)-1-[(ethylcarbamoyl)oxy]-4-methyl-3-[(2S,3S)-3-methyl-2-{[(2R)-1-methylpiperidin-2-yl]formamido}-N-(pent-4-yn-1-yloxy)pentanamido]pentyl]-1,3-thiazol-4-yl}formamido)-2,2-dimethylpentanoic acid]
IC50 [2]: > 100 nM
C4-2 % Kill [2]: 10.9%
